Source: patent publication US20240083857A1, “2-Methyl-Quinazolines” (Bayer Pharma Aktiengesellschaft, priority 2017, published 2024)
Like-named read-outs stand apart in the source and are kept apart here.

How the values were obtained:
[1] = target: K-Ras^G12C : hSOS1 interaction (Homo sapiens, UniProt Q07889); experiment: Biochemical assay 1: K-Ras^G12C interaction assay with hSOS1 (HTRF); assay type: binding; details: read-out: Assay 1 (KRAS-SOS Interaction) activity expressed as IC50
[2] = target: Epidermal Growth Factor Receptor (EGFR) (Homo sapiens (Human), UniProt P00533); experiment: EGFR kinase assay (TR-FRET); assay type: biochemical; details: read-out: EGFR kinase inhibition IC50
Sequence of Epidermal Growth Factor Receptor (EGFR) (P00533 25-1210): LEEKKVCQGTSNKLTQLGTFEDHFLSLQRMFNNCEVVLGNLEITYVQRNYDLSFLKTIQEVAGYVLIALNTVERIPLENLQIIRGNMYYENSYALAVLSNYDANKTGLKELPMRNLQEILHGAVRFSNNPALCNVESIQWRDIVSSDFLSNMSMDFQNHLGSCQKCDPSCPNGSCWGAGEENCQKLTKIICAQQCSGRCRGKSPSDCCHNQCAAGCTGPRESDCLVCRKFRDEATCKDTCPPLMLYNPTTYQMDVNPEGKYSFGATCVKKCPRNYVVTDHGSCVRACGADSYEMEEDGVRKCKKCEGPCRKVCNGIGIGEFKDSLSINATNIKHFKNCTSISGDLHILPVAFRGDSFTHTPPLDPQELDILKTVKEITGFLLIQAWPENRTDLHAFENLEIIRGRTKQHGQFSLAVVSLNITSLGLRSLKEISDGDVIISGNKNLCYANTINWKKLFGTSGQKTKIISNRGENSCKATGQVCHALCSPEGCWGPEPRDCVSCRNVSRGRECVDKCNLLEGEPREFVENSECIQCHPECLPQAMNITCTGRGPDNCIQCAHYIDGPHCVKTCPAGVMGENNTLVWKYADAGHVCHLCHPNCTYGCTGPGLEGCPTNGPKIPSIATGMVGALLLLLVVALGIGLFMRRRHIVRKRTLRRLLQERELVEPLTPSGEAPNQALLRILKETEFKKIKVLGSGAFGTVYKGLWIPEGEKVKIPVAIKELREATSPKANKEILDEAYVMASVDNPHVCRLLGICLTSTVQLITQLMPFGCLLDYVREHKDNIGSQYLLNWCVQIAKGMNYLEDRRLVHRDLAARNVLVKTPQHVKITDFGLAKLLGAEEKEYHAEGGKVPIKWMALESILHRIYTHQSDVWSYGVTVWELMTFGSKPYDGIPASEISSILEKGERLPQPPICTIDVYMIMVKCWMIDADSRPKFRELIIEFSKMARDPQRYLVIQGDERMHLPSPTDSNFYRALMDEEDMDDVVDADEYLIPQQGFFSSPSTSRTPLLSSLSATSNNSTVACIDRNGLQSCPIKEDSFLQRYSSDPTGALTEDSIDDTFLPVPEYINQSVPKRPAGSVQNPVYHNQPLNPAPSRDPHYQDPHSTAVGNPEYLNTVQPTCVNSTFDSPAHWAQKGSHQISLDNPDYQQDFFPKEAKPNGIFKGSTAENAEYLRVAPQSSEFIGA
Outline: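 Read-out is the 665/620 nm HTRF ratio, from a Tb-cryptate anti-phosphotyrosine antibody and streptavidin-XL665 bound to phosphorylated biotin-peptide substrate. The enzyme, A431-derived EGFR (~3 U/ml), was given 15 min compound pre-binding at 22° C in Hepes pH 7.0 with Mg2+/Mn2+ before reaction.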

Row | SMILES | IC50 [1] [nM] | IC50 ([2]; values given in μM) [µM] | IC50 ([2]; unit inferred) [µM]
1 | COc1cc2nc(C)nc(NC(C)c3ccc(-c4cccc(C(N)=O)c4)s3)c2cc1OC (stereo not shown) [Example 241, 3-(5-{1-[(6,7-dimethoxy-2-methylquinazolin-4-yl)amino]ethyl}thiophen-2-yl)benzamide] | 1120 | > 20 | 
2 | CCOc1ccccc1-c1ccc(C(C)Nc2nc(C)nc3cc(OC)c(OC)cc23)s1 (stereo not shown) [Example 232, N-{1-[5-(2-ethoxyphenyl)thiophen-2-yl]ethyl}-6,7-dimethoxy-2-methylquinazolin-4-amine] | 9010 | > 20 | 
3 | COc1cc2nc(C)nc(NC(C)c3ccc(-c4cnn(CC(N)=O)c4)s3)c2cc1OC (stereo not shown) [Example 249, 2-[4-(5-{1-[(6,7-dimethoxy-2-methylquinazolin-4-yl)amino]ethyl}thiophen-2-yl)-1H-pyrazol-1-yl]acetamide] | 6100 | > 20 | 
4 | COc1cc2nc(C)nc(NC(C)c3csc(-c4cnn(CCO)c4)c3)c2cc1OC (stereo not shown) [Example 251, 2-[4-(4-{1-[(6,7-dimethoxy-2-methylquinazolin-4-yl)amino]ethyl}thiophen-2-yl)-1H-pyrazol-1-yl]ethanol] | 4570 | > 20 | 
5 | COc1cc2nc(C)nc(NC(C)c3ccc(-c4ccccc4CN4CCC(C(N)=O)CC4)s3)c2cc1OC (stereo not shown) [Example 179, 1-[2-(5-{1-[(6,7-dimethoxy-2-methylquinazolin-4-yl)amino]ethyl}thiophen-2-yl)benzyl]piperidine-4-carboxamide] | 90.4 | > 20 | 
6 | COc1cc2nc(C)nc(NC(C)c3ccc(-c4ccccc4CO)s3)c2cc1OC (stereo not shown) [Example 244, [2-(5-{1-[(6,7-dimethoxy-2-methylquinazolin-4-yl)amino]ethyl}thiophen-2-yl)phenyl]methanol] | 282 | > 20 | 
7 | COc1cc2nc(C)nc(NC(C)c3ccc(-c4cnn(C5CCCC5)c4)s3)c2cc1OC (stereo not shown) [Example 221, N-{1-[5-(1-cyclopentyl-1H-pyrazol-4-yl)thiophen-2-yl]ethyl}-6,7-dimethoxy-2-methylquinazolin-4-amine] | 3060 | > 20 | 
8 | COc1cc2nc(C)nc(NC(C)c3ccc(-c4ccccc4CN4CCC[C@H]4CN(C)C)s3)c2cc1OC (stereo partly drawn) [Example 185, N-[1-{5-[2-({(2S)-[(dimethylamino)methyl]pyrrolidin-1-yl}methyl)phenyl]thiophen-2-yl}ethyl]-6,7-dimethoxy-2-methylquinazolin-4-amine] | 78.8 | > 20 | 
9 | COc1cc2nc(C)nc(NC(C)c3cccc4c3CCCC4)c2cc1OC (stereo not shown) [Example 11, 6,7-dimethoxy-2-methyl-N-[1-(5,6,7,8-tetrahydronaphthalen-1-yl)ethyl]quinazolin-4-amine] | 203 | > 20 | 
10 | COc1cc2nc(C)nc(N[C@H](C)c3ccc(F)cc3)c2cc1OC [Example 12, N-[(1R)-1-(4-fluorophenyl)ethyl]-6,7-dimethoxy-2-methylquinazolin-4-amine] | 335 | > 20 | 
11 | COc1cc2nc(C)nc(NC(C)c3cccc(Oc4ccccc4)c3)c2cc1OC (single isomer, unassigned; enantiomer 1) [Example 228, 6,7-dimethoxy-2-methyl-N-[1-(3-phenoxyphenyl)ethyl]quinazolin-4-amine, Enantiomer 1] | 569 |  | 0.341
12 | COc1cc2nc(C)nc(NC(C)c3cccc(Oc4ccccc4)c3)c2cc1OC (stereo not shown) [Example 215, 6,7-dimethoxy-2-methyl-N-[1-(3-phenoxyphenyl)ethyl]quinazolin-4-amine] | 906 |  | 2.57
13 | COc1cc2nc(C)nc(NC(C)c3ccc(-c4ccc(F)cc4CN)s3)c2cc1OC (stereo not shown) [Example 234, N-[1-{5-[2-(aminomethyl)-4-fluorophenyl]thiophen-2-yl}ethyl]-6,7-dimethoxy-2-methylquinazolin-4-amine] | 75.6 | > 20 | 
14 | C=Cc1ccccc1-c1ccc(C(C)Nc2nc(C)nc3cc(OC)c(OC)cc23)s1 (stereo not shown) [Example 248, N-{1-[5-(2-ethenylphenyl)thiophen-2-yl]ethyl}-6,7-dimethoxy-2-methylquinazolin-4-amine] | 1490 | > 20 | 
